These are literature values, as cited in the CATMoS acute toxicity set (Mansouri et al. 2021).

Values joined by “and” are separate entries in the source; they are usually repeats but may differ in a detail not shown here. Equal values may be shown once.

The data set is described as follows: rat acute oral toxicity. The following applies: in vivo.
Take `CN(N=O)C(=O)NC(N)=O`: the LD50 was 450 mg/kg.
As for `O=CC(Cl)(Cl)Cl`, the LD50 is 480 mg/kg.
On to `CCCC(C)(C)C(=O)Nc1ccc(Cl)cc1`, for which the LD50 was 2600 mg/kg.
Take `COc1cc(NC(=O)OCCCN2CCN(c3ccccc3)CC2)cc(OC)c1OC`: the LD50 is 900 mg/kg.
With `CCC(c1ccccc1)c1noc(CCN(CC)CC)n1` (stereo unspecified), the LD50 was 1400 mg/kg.
Take `CCC=C(C)C=O`: the LD50 was 4290 mg/kg.
`CCCSC(=O)Oc1c(C(C)CC)cc([N+](=O)[O-])cc1[N+](=O)[O-]` (stereo unspecified): the LD50 is 584 mg/kg.
Take `Cc1ccc(SN(C)C(=O)Oc2cccc3c2OC(C)(C)C3)cc1`: the LD50 was 25 mg/kg.
As to `Cn1c(=O)c2c(ncn2CC(O)CN2CCN(CCCSc3ccccc3)CC2)n(C)c1=O` (stereo unspecified), the LD50 is 2100 mg/kg.
In the case of `O=S1(=O)CCCO1`, the LD50 was 100 mg/kg.
As to `O=C(O)C1CSCN1` (stereo unspecified), the LD50 is 875 mg/kg.
Turning to `CC1=CC(=O)c2c(O)cccc2C1=O`, the LD50 is 65 mg/kg.
Take `C[N+](C)(C)CCCCCCCCCC[N+](C)(C)C`: the LD50 was 85 mg/kg.
With `CN1CN(CC(=O)O)CSC1=S`, the LD50 is 1000 mg/kg.
With `ClCC(Br)CBr` (stereo unspecified), the LD50 was 170 mg/kg.
For `CC(=O)C=Cc1ccco1`, the LD50 is 325 mg/kg.
Turning to `Nc1ccc(N)c2c1C(=O)c1ccccc1C2=O`, the LD50 is 5790 mg/kg.
On to `CN1CCN(C)CC1`, for which the LD50 was 1120 mg/kg.
Consider `N#CCCCCC(=O)O`, for which the LD50 is 1000 mg/kg.
On to `CCS(=O)CC(C)SP(=O)(OC)OC` (stereo unspecified), for which the LD50 is 89 mg/kg.
For the molecule `CN1CCN(c2c(F)cc3c(=O)c(C(=O)O)cn4c3c2SCC4)CC1`, the LD50 is 501 mg/kg.
Turning to `Cc1ccc(N)nc1`, the LD50 is 200 mg/kg.
With `CC(Cl)COP(=O)(OCC(C)Cl)Oc1ccc([N+](=O)[O-])cc1` (stereo unspecified), the LD50 is 173 mg/kg.
For `CCOC(=O)CC(=O)OC(Br)C(Cl)(Cl)Cl` (stereo unspecified), the LD50 is 2600 mg/kg.
For the molecule `CC(C)C(Br)C(=O)OC(C)C(Cl)(Cl)Cl` (stereo unspecified), the LD50 was 1200 mg/kg.
With `CCO[Si](CCCS)(OCC)OCC`, the LD50 is 6110 mg/kg.
Regarding `Nc1ccc([N+](=O)[O-])cc1Cl`, the LD50 is 6430 mg/kg.
On to `CCSCCSP(=S)(OC)OC`, for which the LD50 was 40 mg/kg.
Consider `COC(=O)C=C(C)N`, for which the LD50 is 1760 mg/kg.
Consider `O=C(NCCO[N+](=O)[O-])c1cccnc1`, for which the LD50 was 1220 mg/kg.
For `Cc1cccc(OCCC(C)C)c1N(C)C(=O)CCl`, the LD50 was 3300 mg/kg.
On to `CCCCN(CCCC)C(=O)CF`, for which the LD50 was 37 mg/kg.
Turning to `O=C1CSC2(CCN(CCCN3c4ccccc4Sc4ccc(Cl)cc43)CC2)N1`, the LD50 is 3800 mg/kg.
Consider `O=C1CSC(=S)N1`, for which the LD50 is 320 mg/kg.
With `CCCCCCCc1ccc(O)cc1O`, the LD50 is 1300 mg/kg.
On to `Cn1c(=O)c2c(ncn2CCNCc2cccnc2)n(C)c1=O`, for which the LD50 was 3700 mg/kg.
Consider `CCOc1cc(OCC)c(C(=O)CCC(=O)O)cc1OCC`, for which the LD50 was 2450 mg/kg.
On to `CNC=O`, for which the LD50 was 4000 mg/kg.
With `O=CC(Br)(Br)Br`, the LD50 is 100 mg/kg.
As for `CC[N+]1(C)CCCC(OC(=O)C(O)(c2ccccc2)c2ccccc2)C1` (stereo unspecified), the LD50 is 916 mg/kg and 850 mg/kg.
For `CC(=O)Nc1ccc(C(=O)CCl)cc1`, the LD50 is 2150 mg/kg.
Turning to `CCCCCCCC(=O)Oc1c(I)cc(C#N)cc1I`, the LD50 was 190 mg/kg.
Take `CCC(C)OC(C[n+]1ccccc1)c1ccc(Cl)cc1` (stereo unspecified): the LD50 is 250 mg/kg.
With `OC[C@@H](O)[C@H]1O[C@@H]2O[C@H](C(Cl)(Cl)Cl)O[C@@H]2[C@H]1O`, the LD50 is 400 mg/kg.
Consider `CCC(Cl)Cl`, for which the LD50 is 6500 mg/kg.
As to `c1ccc(Oc2nncc3ccccc23)cc1`, the LD50 was 1000 mg/kg.
In the case of `Nc1ccc(-c2ccccc2N)cc1`, the LD50 was 311 mg/kg.
Turning to `CCCC(=O)OC/C=C(\C)CCC=C(C)C`, the LD50 is 10700 mg/kg.
In the case of `COc1ccc2c(c1)C(N1CCN(C)CC1)=Cc1ccccc1O2`, the median lethal dose (LD50) is 822 mg/kg.
Regarding `CCCCCCCCn1sccc1=O`, the LD50 is 550 mg/kg.
Regarding `COC(C)CO` (stereo unspecified), the 50% lethal dose (LD50) was 5710 mg/kg.
Consider `c1ccc(-c2ccc(CCOc3ncnc4ccccc34)cc2)cc1`, for which the LD50 was 1150 mg/kg.
`COP(=S)(OC)SCc1ccc(SP(=S)(OC)OC)cc1`: the LD50 is 265 mg/kg.
As for `CO[C@H]1C[C@H](O[C@H]2[C@H](C)[C@@H](O[C@@H]3O[C@H](C)C[C@H](N(C)C)[C@H]3O)[C@@H](C)C[C@]3(CO3)C(=O)[C@H](C)[C@@H](O)[C@@H](C)[C@@H](C)OC(=O)[C@@H]2C)O[C@@H](C)[C@@H]1O`, the LD50 was 6700 mg/kg.
For `CC1OC1(C)C` (stereo unspecified), the 50% lethal dose (LD50) is 2640 mg/kg.
Regarding `FCOC(C(F)(F)F)C(F)(F)F`, the LD50 was 10800 mg/kg.
Turning to `NCCCCCCCCCCC(=O)O`, the LD50 was 14700 mg/kg.
Take `Clc1ccc(C(Cl)(Cl)c2ccc(Cl)cc2)cc1`: the LD50 was 168 mg/kg.
In the case of `CN(C)CCCN1C(=O)c2cc([N+](=O)[O-])ccc2Oc2ccccc21`, the LD50 was 1690 mg/kg.
On to `CCCCP(CCCC)CCCC`, for which the LD50 was 750 mg/kg.
Turning to `Cc1cc(C(C)(C)C)c(OB(OC(C)C)OC(C)C)c(C(C)(C)C)c1`, the LD50 was 5200 mg/kg.
With `CCC(C(=O)c1ccc2[nH]c(=O)ccc2c1)N1CCN(c2cccc(Cl)c2)CC1` (stereo unspecified), the LD50 is 500 mg/kg.
As for `O=S1(=O)CC=CC1`, the LD50 was 2550 mg/kg.
On to `CC1(C)S[C@@H]2[C@H](NC(=O)C(C(=O)Oc3ccc4c(c3)CCC4)c3ccccc3)C(=O)N2[C@H]1C(=O)O` (stereo partly specified), for which the LD50 is 4450 mg/kg.
As to `Cn1c(=O)sc2cccc(Cl)c21`, the LD50 was 1940 mg/kg.
Consider `CCc1nc(N)nc(N)c1-c1ccccc1`, for which the LD50 was 126 mg/kg.
On to `COC1=CC=C2[C@H]3Cc4ccc(OC)c5c4[C@@]2(CCN3C)[C@H]1O5`, for which the LD50 was 114 mg/kg.
Regarding `CC1(C)COS(=O)(=O)OC1`, the LD50 was 10 mg/kg.
As for `CS(=O)(=O)c1ccc2nc(C(F)(F)F)[nH]c2c1`, the LD50 was 69 mg/kg.
Turning to `CCOC(=O)C1(c2ccccc2)CCN(C)CC1`, the LD50 was 170 mg/kg.
Take `CC(CC(C#N)(c1ccccc1)C(C)C)N(C)C` (stereo unspecified): the LD50 was 250 mg/kg.
Regarding `CCOP(=S)(OCC)SCn1nnc2ccccc2c1=O`, the LD50 is 7 mg/kg.
Regarding `O=P(OCC(Cl)CCl)(OCC(Cl)CCl)OCC(Cl)CCl` (stereo unspecified), the LD50 is 2830 mg/kg.
With `CCCCCCCCCCCCCCCC(=O)OC/C=C(C)/C=C/C=C(C)/C=C/C1=C(C)CCCC1(C)C`, the LD50 is 7910 mg/kg.
Take `CCCN=C(C(OC)c1ccccc1)N1CCCCCC1` (stereo unspecified): the LD50 was 55 mg/kg.
As to `CC(C)[N+](=O)[O-]`, the LD50 was 720 mg/kg.
Regarding `Cc1ccc(C(C)C)cc1O`, the LD50 is 810 mg/kg.
For the molecule `CON=CC1=CCCN(C)C1`, the LD50 was 300 mg/kg.
Turning to `CCC(SC(C)=NOC(=O)NC)C(N)=O` (stereo unspecified), the LD50 is 14.1 mg/kg.
Turning to `CCCCC(CC)COC(CBr)c1cccc(Cl)c1` (stereo unspecified), the LD50 is 250 mg/kg.
As for `CN=C(O)O/N=C1/COCS1`, the median lethal dose (LD50) is 49 mg/kg.
In the case of `CC(C)=CCOC(=O)c1ccccc1`, the LD50 was 4700 mg/kg.
As to `Oc1ccc(Nc2ccc3ccccc3c2)cc1`, the LD50 is 5200 mg/kg.
On to `O=C(CCl)OCCOCCO`, for which the LD50 is 770 mg/kg.
Take `CCOP(=S)(OCC)Oc1cc([N+](=O)[O-])c(Cl)cc1Cl`: the LD50 is 100 mg/kg.
For the molecule `OCCOCc1ccccc1`, the 50% lethal dose (LD50) is 1190 mg/kg.
In the case of `O=C(NNCS(=O)(=O)O)c1ccncc1`, the LD50 was 14400 mg/kg.
Consider `C/C=C1\[C@H]2C=C(C)C[C@]1(N)c1ccc(=O)[nH]c1C2`, for which the LD50 was 15 mg/kg.
Consider `CCOC(=O)CI`, for which the median lethal dose (LD50) is 50 mg/kg.
As to `CCC(C)(C)OC(=O)Nc1ccco1`, the LD50 is 190 mg/kg.
With `O=C1CCCC1`, the LD50 was 2690 mg/kg.
For the molecule `CNC(=O)ON=C1SC(=NC(C)(C)C)SC1(C)C`, the LD50 was 31.5 mg/kg.
Consider `CCOc1ccc(NCCC#N)cc1`, for which the LD50 was 4600 mg/kg.
For `CCSC(=S)N(C)C`, the LD50 is 550 mg/kg.
With `N=C(NN=Cc1ccc(Cl)cc1)NN=Cc1ccc(Cl)cc1`, the LD50 is 1350 mg/kg.
For the molecule `CCN(COC)N=O`, the LD50 was 540 mg/kg.
On to `C=C1/C(=C\C=C2/CCC[C@]3(C)[C@@H]([C@H](C)CCCC(C)(C)O)CC[C@@H]23)C[C@@H](O)C[C@@H]1O`, for which the LD50 is 0.62 mg/kg.
For the molecule `CCc1ccccc1N`, the LD50 was 1260 mg/kg.
Take `CCCCC(CC)COC(C[n+]1ccccc1)c1cccc(C2CCCCC2)c1` (stereo unspecified): the 50% lethal dose (LD50) is 250 mg/kg.
`CCCCCCCCOC(=O)CC(C(=O)OCCCCCCCC)S(=O)(=O)O` (stereo unspecified): the LD50 is 1900 mg/kg.
On to `CSC(C)=NOC(=O)N(C)SSN(C)C(=O)ON=C(C)SC`, for which the LD50 is 190 mg/kg.
For `ClCC(Cl)=C(Cl)Cl`, the LD50 is 350 mg/kg.
`O=C(NC1CCN(CCc2c[nH]c3ccccc23)CC1)c1ccccc1`: the LD50 was 1800 mg/kg.
On to `CNCCCC1(C#N)c2ccccc2CCc2ccccc21`, for which the 50% lethal dose (LD50) was 889 mg/kg.
`CCOC(=O)N(Cc1ccccc1)C1CC1`: the LD50 was 1380 mg/kg.
Take `Cc1cccc(C)c1N(Cn1cccn1)C(=O)CCl`: the LD50 was 1000 mg/kg.
As for `Cc1nn(C)c(=O)c2noc(C)c12`, the LD50 is 1000 mg/kg.
In the case of `COc1ccccc1N1CCN(CCCNc2cc(=O)n(C)c(=O)n2C)CC1`, the LD50 was 520 mg/kg.
For `O=C(OOC(=O)c1ccccc1)c1ccccc1`, the LD50 was 7710 mg/kg.
`CN1CCC2(C)CC(Cc3ccc(O)cc32)C1` (stereo unspecified): the LD50 was 320 mg/kg.
Consider `COc1c(Cl)c(Cl)c2[nH]c(C(F)(F)F)nc2c1Cl`, for which the LD50 is 33 mg/kg.
For `CCN(CC)N=Nc1ccccc1`, the LD50 was 520 mg/kg.
Consider `COC(=NC#N)OC`, for which the LD50 was 1500 mg/kg.
Regarding `O=Cc1cccc(Oc2ccccc2)c1`, the LD50 is 1220 mg/kg.
As for `CNCc1cccc2ccccc12`, the LD50 is 50 mg/kg.
As for `O=C(O)CCC(=O)c1ccc2oc3ccccc3c2c1`, the LD50 is 1280 mg/kg.
For the molecule `CNC(=O)Oc1cccc2c1OC(C)(C)O2`, the LD50 is 40 mg/kg.
As to `COc1nc(C)nc(NC(=O)NS(=O)(=O)c2ccccc2Cl)n1`, the LD50 is 9370 mg/kg.
Consider `COCCOC(C)OCCOC`, for which the LD50 is 3260 mg/kg.
With `O=C1CCc2cc(C(=O)CCCN3CC=C(c4ccccc4)CC3)ccc2N1`, the LD50 is 500 mg/kg.
For the molecule `CCCCC(C)(C)CO`, the LD50 is 2200 mg/kg.
With `CC1CN1P(=O)(N1CC1C)N1CC1C` (stereo unspecified), the LD50 was 136 mg/kg.
As to `CC(C(=O)O)c1ccc(CC2CCCC2=O)cc1` (stereo unspecified), the LD50 was 145 mg/kg.
Regarding `O=C1C(Cl)C2(Cl)C3C(Cl)OCC3C1(Cl)C2(Cl)Cl` (stereo unspecified), the LD50 was 100 mg/kg.
For `CNC(=O)N1C(=O)CN=C(c2ccccc2)c2cc([N+](=O)[O-])ccc21`, the LD50 is 2280 mg/kg.
Take `Clc1ccc2ocnc2c1`: the LD50 was 650 mg/kg.
